# Measurements published in patent US8815569B2, “Methods for preserving and/or storing cells having a nitrilase or nitrile hydratase activity” (priority 2003, dated 2014).
# Target: T1, E. coli-expressed nitrilase (Alcaligenes faecalis, UniProt P20960)
# T1 construct: expressed in transfected cells; host or cells: Escherichia coli TG10 (pDHE1650 pAgro4 pHSG575), whole-cell suspension
# Test: Nitrilase activity test of the cell suspension after storage with aldehyde
# Type: cell-based, Escherichia coli
# Procedure: The Escherichia coli strain (TG10 pDHE1650 pAgro4 pHSG575) was fermented in a 20 l bioreactor. The reactor, containing a 10 l working volume, was inoculated with 200 ml of preliminary culture from shaker flasks. The preliminary culture medium corresponds to the main culture medium.
# The fermentation is carried out at a temperature of 37° C. The gassing is regulated between 8-30 l/min, while the rotation speed of the stirrer is regulated at […], in order to maintain a pO2 of not less than 20%. After a fermentation period of 1 h, the culture is induced with IPTG (0.15 mM). 18.5 g of rhamnose feed solution are then added. After the initially introduced quantity of glycerol has been consumed, glycerol is then fed in continuously. After a fermentation period of 44 h, cell suspensions of 50 g DBM/l and 50 to 60 ku/l are obtained. The cells are cooled down to 4° C.
# 50 μl of cell suspension are pipetted into 880 μl of sodium potassium phosphate buffer (10 mM) and the whole is equilibrated at 30° C. The reaction is started by adding 20 μl of methanolic mandelonitrile solution (12%). After 10 min, the enzyme reaction is stopped by adding 50 μl of 1M HC. The cell mass is centrifuged off and the concentration of mandelic acid in the supernatant is measured by means of HPLC (ODS Hypersil 100*2.0 mm, mobile phase: 75% H3PO4 (14.8 mM)/25% methanol; flow rate: 0.5 ml/min; injection volume: 2 μl; column temperature: 40° C.; detection: 210 nm; mandelic acid retention time: 0.9 min).
# 14 h after the end of the fermentation, the cell suspension was adjusted to a pH of 6.0, 6.6 or 7.2 with NaOH or H2SO4 and then treated with benzaldehyde. The samples were stored at 4° C. or 22° C. Enzyme activity was determined at 0.6, 3.6 and 6.6 days after the end of the fermentation.
# 14 h after the end of the fermentation, the cell suspension was adjusted to a pH of 6.0, 6.6. or 7.2 with NaOH or H2SO4 and then treated with 2-chlorobenzaldehyde. The samples were stored at 4° C. or 22° C. The enzyme activity was determined at 0.6, 3.6 and 6.6 days after the end of the fermentation.
# [1] = storage at 4° C., pH 6.0, 1 mM aldehyde, storage period 0.6 d
# [2] = storage at 4° C., pH 6.0, 1 mM aldehyde, storage period 3.6 d
# [3] = storage at 4° C., pH 6.0, 1 mM aldehyde, storage period 6.6 d
# [4] = storage at 4° C., pH 6.0, 5 mM aldehyde, storage period 0.6 d
# [5] = storage at 4° C., pH 6.0, 5 mM aldehyde, storage period 3.6 d
# [6] = storage at 4° C., pH 6.0, 5 mM aldehyde, storage period 6.6 d
# [7] = storage at 4° C., pH 6.0, 10 mM aldehyde, storage period 0.6 d
# [8] = storage at 4° C., pH 6.0, 10 mM aldehyde, storage period 3.6 d
# [9] = storage at 4° C., pH 6.0, 10 mM aldehyde, storage period 6.6 d
# [10] = storage at 4° C., pH 6.6, 1 mM aldehyde, storage period 0.6 d
# [11] = storage at 4° C., pH 6.6, 1 mM aldehyde, storage period 3.6 d
# [12] = storage at 4° C., pH 6.6, 1 mM aldehyde, storage period 6.6 d
# [13] = storage at 4° C., pH 6.6, 5 mM aldehyde, storage period 0.6 d
# [14] = storage at 4° C., pH 6.6, 5 mM aldehyde, storage period 3.6 d
# [15] = storage at 4° C., pH 6.6, 5 mM aldehyde, storage period 6.6 d
# [16] = storage at 4° C., pH 6.6, 10 mM aldehyde, storage period 0.6 d
# [17] = storage at 4° C., pH 6.6, 10 mM aldehyde, storage period 3.6 d
# [18] = storage at 4° C., pH 6.6, 10 mM aldehyde, storage period 6.6 d
# [19] = storage at 4° C., pH 7.2, 1 mM aldehyde, storage period 0.6 d
# [20] = storage at 4° C., pH 7.2, 1 mM aldehyde, storage period 3.6 d
# [21] = storage at 4° C., pH 7.2, 1 mM aldehyde, storage period 6.6 d
# [22] = storage at 4° C., pH 7.2, 5 mM aldehyde, storage period 0.6 d
# [23] = storage at 4° C., pH 7.2, 5 mM aldehyde, storage period 3.6 d
# [24] = storage at 4° C., pH 7.2, 5 mM aldehyde, storage period 6.6 d
# [25] = storage at 4° C., pH 7.2, 10 mM aldehyde, storage period 0.6 d
# [26] = storage at 4° C., pH 7.2, 10 mM aldehyde, storage period 3.6 d
# [27] = storage at 4° C., pH 7.2, 10 mM aldehyde, storage period 6.6 d
# [28] = storage at 22° C., pH 6.0, 1 mM aldehyde, storage period 0.6 d
# [29] = storage at 22° C., pH 6.0, 1 mM aldehyde, storage period 3.6 d
# [30] = storage at 22° C., pH 6.0, 1 mM aldehyde, storage period 6.6 d
# [31] = storage at 22° C., pH 6.0, 5 mM aldehyde, storage period 0.6 d
# [32] = storage at 22° C., pH 6.0, 5 mM aldehyde, storage period 3.6 d
# [33] = storage at 22° C., pH 6.0, 5 mM aldehyde, storage period 6.6 d
# [34] = storage at 22° C., pH 6.0, 10 mM aldehyde, storage period 0.6 d
# [35] = storage at 22° C., pH 6.0, 10 mM aldehyde, storage period 3.6 d
# [36] = storage at 22° C., pH 6.0, 10 mM aldehyde, storage period 6.6 d
# [37] = storage at 22° C., pH 6.6, 1 mM aldehyde, storage period 0.6 d
# [38] = storage at 22° C., pH 6.6, 1 mM aldehyde, storage period 3.6 d
# [39] = storage at 22° C., pH 6.6, 1 mM aldehyde, storage period 6.6 d
# [40] = storage at 22° C., pH 6.6, 5 mM aldehyde, storage period 0.6 d
# [41] = storage at 22° C., pH 6.6, 5 mM aldehyde, storage period 3.6 d
# [42] = storage at 22° C., pH 6.6, 5 mM aldehyde, storage period 6.6 d
# [43] = storage at 22° C., pH 6.6, 10 mM aldehyde, storage period 0.6 d
# [44] = storage at 22° C., pH 6.6, 10 mM aldehyde, storage period 3.6 d
# [45] = storage at 22° C., pH 6.6, 10 mM aldehyde, storage period 6.6 d
# [46] = storage at 22° C., pH 7.2, 1 mM aldehyde, storage period 0.6 d
# [47] = storage at 22° C., pH 7.2, 1 mM aldehyde, storage period 3.6 d
# [48] = storage at 22° C., pH 7.2, 1 mM aldehyde, storage period 6.6 d
# [49] = storage at 22° C., pH 7.2, 5 mM aldehyde, storage period 0.6 d
# [50] = storage at 22° C., pH 7.2, 5 mM aldehyde, storage period 3.6 d
# [51] = storage at 22° C., pH 7.2, 5 mM aldehyde, storage period 6.6 d
# [52] = storage at 22° C., pH 7.2, 10 mM aldehyde, storage period 0.6 d
# [53] = storage at 22° C., pH 7.2, 10 mM aldehyde, storage period 3.6 d
# [54] = storage at 22° C., pH 7.2, 10 mM aldehyde, storage period 6.6 d
# T1 sequence (P20960 whole entry Q122E/S243P/E312D/I323T/Q324R/P330Q/H331G/T335K/A336I/P338S/V341I/Q343H/T344P): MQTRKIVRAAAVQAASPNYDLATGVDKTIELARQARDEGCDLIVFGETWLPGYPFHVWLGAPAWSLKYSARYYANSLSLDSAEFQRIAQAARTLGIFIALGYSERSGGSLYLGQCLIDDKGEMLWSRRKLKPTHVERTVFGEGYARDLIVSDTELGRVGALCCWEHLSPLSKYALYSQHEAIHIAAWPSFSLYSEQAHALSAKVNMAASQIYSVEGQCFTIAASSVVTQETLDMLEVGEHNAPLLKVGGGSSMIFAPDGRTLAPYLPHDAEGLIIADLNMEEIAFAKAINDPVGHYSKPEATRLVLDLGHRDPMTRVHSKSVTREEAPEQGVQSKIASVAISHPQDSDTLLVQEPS
smiles,measurement,setting,value
O=Cc1ccccc1Cl [2-chlorobenzaldehyde],Activity in kU/l,[1],52.4 kU/l
same,Activity in kU/l,[2],53.5 kU/l
same,Activity in kU/l,[3],56.9 kU/l
same,Activity in kU/l,[4],52.5 kU/l
same,Activity in kU/l,[5],55.6 kU/l
same,Activity in kU/l,[6],53.8 kU/l
same,Activity in kU/l,[7],53.5 kU/l
same,Activity in kU/l,[8],55.7 kU/l
same,Activity in kU/l,[9],47.6 kU/l
same,Activity in kU/l,[10],48.8 kU/l
same,Activity in kU/l,[11],55.1 kU/l
same,Activity in kU/l,[12],54.7 kU/l
same,Activity in kU/l,[13],50.6 kU/l
same,Activity in kU/l,[14],56.3 kU/l
same,Activity in kU/l,[15],53.6 kU/l
same,Activity in kU/l,[16],47.4 kU/l
same,Activity in kU/l,[17],55.0 kU/l
same,Activity in kU/l,[18],58.5 kU/l
same,Activity in kU/l,[19],51.3 kU/l
same,Activity in kU/l,[20],48.3 kU/l
same,Activity in kU/l,[21],45.2 kU/l
same,Activity in kU/l,[22],53.3 kU/l
same,Activity in kU/l,[23],51.2 kU/l
same,Activity in kU/l,[24],48.1 kU/l
same,Activity in kU/l,[25],48.3 kU/l
same,Activity in kU/l,[26],51.0 kU/l
same,Activity in kU/l,[27],49.9 kU/l
same,Activity in kU/l,[28],52.4 kU/l
same,Activity in kU/l,[29],53.8 kU/l
same,Activity in kU/l,[30],54.5 kU/l
same,Activity in kU/l,[31],52.5 kU/l
same,Activity in kU/l,[32],55.0 kU/l
same,Activity in kU/l,[33],59.1 kU/l
same,Activity in kU/l,[34],53.5 kU/l
same,Activity in kU/l,[35],55.7 kU/l
same,Activity in kU/l,[36],52.4 kU/l
same,Activity in kU/l,[37],48.8 kU/l
same,Activity in kU/l,[38],55.0 kU/l
same,Activity in kU/l,[39],57.2 kU/l
same,Activity in kU/l,[40],50.6 kU/l
same,Activity in kU/l,[41],56.7 kU/l
same,Activity in kU/l,[42],55.5 kU/l
same,Activity in kU/l,[43],47.4 kU/l
same,Activity in kU/l,[44],56.2 kU/l
same,Activity in kU/l,[45],58.6 kU/l
same,Activity in kU/l,[46],51.3 kU/l
same,Activity in kU/l,[47],52.8 kU/l
same,Activity in kU/l,[48],53.2 kU/l
same,Activity in kU/l,[49],53.3 kU/l
same,Activity in kU/l,[50],51.4 kU/l
same,Activity in kU/l,[51],50.1 kU/l
same,Activity in kU/l,[52],48.3 kU/l
same,Activity in kU/l,[53],52.9 kU/l
same,Activity in kU/l,[54],54.0 kU/l
O=Cc1ccccc1 [benzaldehyde],Activity in kU/l,[1],55.1 kU/l
same,Activity in kU/l,[2],49.9 kU/l
same,Activity in kU/l,[3],48.3 kU/l
same,Activity in kU/l,[4],51.8 kU/l
same,Activity in kU/l,[5],52.3 kU/l
same,Activity in kU/l,[6],53.0 kU/l
same,Activity in kU/l,[7],51.3 kU/l
same,Activity in kU/l,[8],51.5 kU/l
same,Activity in kU/l,[9],50.2 kU/l
same,Activity in kU/l,[10],53.2 kU/l
same,Activity in kU/l,[11],52.3 kU/l
same,Activity in kU/l,[12],52.5 kU/l
same,Activity in kU/l,[13],47.1 kU/l
same,Activity in kU/l,[14],52.0 kU/l
same,Activity in kU/l,[15],55.7 kU/l
same,Activity in kU/l,[16],51.3 kU/l
same,Activity in kU/l,[17],55.5 kU/l
same,Activity in kU/l,[18],51.9 kU/l
same,Activity in kU/l,[19],55.8 kU/l
same,Activity in kU/l,[20],46.8 kU/l
same,Activity in kU/l,[21],47.5 kU/l
same,Activity in kU/l,[22],47.1 kU/l
same,Activity in kU/l,[23],48.3 kU/l
same,Activity in kU/l,[24],50.7 kU/l
same,Activity in kU/l,[25],53.8 kU/l
same,Activity in kU/l,[26],51.2 kU/l
same,Activity in kU/l,[27],49.2 kU/l
same,Activity in kU/l,[28],55.1 kU/l
same,Activity in kU/l,[29],50.6 kU/l
same,Activity in kU/l,[30],51.0 kU/l
same,Activity in kU/l,[31],51.8 kU/l
same,Activity in kU/l,[32],51.5 kU/l
same,Activity in kU/l,[33],54.9 kU/l
same,Activity in kU/l,[34],51.3 kU/l
same,Activity in kU/l,[35],53.0 kU/l
same,Activity in kU/l,[36],49.2 kU/l
same,Activity in kU/l,[37],53.2 kU/l
same,Activity in kU/l,[38],53.0 kU/l
same,Activity in kU/l,[39],53.1 kU/l
same,Activity in kU/l,[40],47.1 kU/l
same,Activity in kU/l,[41],54.3 kU/l
same,Activity in kU/l,[42],58.0 kU/l
same,Activity in kU/l,[43],51.3 kU/l
same,Activity in kU/l,[44],49.4 kU/l
same,Activity in kU/l,[45],55.4 kU/l
same,Activity in kU/l,[46],55.8 kU/l
same,Activity in kU/l,[47],50.4 kU/l
same,Activity in kU/l,[48],48.7 kU/l
same,Activity in kU/l,[49],47.1 kU/l
same,Activity in kU/l,[50],51.7 kU/l
same,Activity in kU/l,[51],52.9 kU/l
same,Activity in kU/l,[52],53.8 kU/l
same,Activity in kU/l,[53],52.7 kU/l
same,Activity in kU/l,[54],51.3 kU/l
